Measured values taken from patent publication EP2322194A2 (Reprise Biopharmaceutics, LLC, priority 2003, dated 2005).
“And” between values parts separate entries of the source, which are not always exact repeats. Equal entries are not always repeated. Where two headings read alike, the source gives them in different places.

Test system: over-hydrated, healthy, non-smoking male and female volunteers
Type: in vivo, human
Conditions: for Urine Output: individual subjects
Procedure: Briefly, an open-label, crossover study with 8 healthy, over-hydrated, non-smoking male and female volunteers, age 18-40. The subjects were dosed initially with 0.5 ng/kg dose, then with the 1.0 ng/kg dose and finally the 2.0 ng/kg dose. Pharmacodynamic and pharmacokinetic parameters were evaluated at each dose level. A washout period of two days (48 hours) was observed between dosing. Eight subjects evaluated in this study, 5 males, and 3 females. […] Each subject remained in the clinic from one day prior to first dosing to one day after last dosing for a total of 7 days. […] At this point over-hydration was discontinued. […] Urine-specific gravity was also measured. […] This same procedure was followed for the 1.0 ng/kg and 2.0 ng/kg infusions. […] Criteria for evaluation in the study included urine output over time, urine osmolality over time, urine-specific gravity over time, and […] osmolality and sodium over time. Statistical analysis on the above criteria was performed. The statistical analysis is descriptive and all statistical hypothesis testing was done for exploratory purposes. […] The second and third estimation used 200 mOsm/kg and 400 mOsm/kg as cut off levels for 'onset' and 'end' of action, respectively. […] The overall duration of action was estimated for each dose group using the nonparametric Kaplan-Meier method. […] Furthermore, the duration of action was presented for each treatment group using the mean, SD, median, minimum and maximum values. The dose-response relationship between duration of action and dose was investigated using an appropriate linear or nonlinear model.

[1] = 1.0 ng/kg, time -20 min (baseline)
[2] = 2.0 ng/kg, time 0 min (baseline)
[3] = 2.0 ng/kg, time -20 min (baseline)

1-desamino-8-D-arginine vasopressin [desmopressin]
Urine Osmolality, Mean (1.0 ng/kg, time 140 min): 412.2 mOsm/kg | Urine Output, Mean (1.0 ng/kg, time 140 min): 1.8 mL/min | Urine Output (1.0 ng/kg, time 140 min): 0 mL/min | Urine Osmolality, Mean (1.0 ng/kg, time 160 min): 261.7 mOsm/kg | Urine Output, Mean (1.0 ng/kg, time 160 min): 3.2 mL/min | Urine Osmolality, Mean (1.0 ng/kg, time 180 min): 280.9 mOsm/kg | Urine Output, Mean (1.0 ng/kg, time 180 min): 5.0 mL/min | Urine Output (1.0 ng/kg, time 180 min): 7.1 mL/min | Urine Osmolality, Mean (1.0 ng/kg, time 200 min): 216.3 mOsm/kg | Urine Output, Mean (1.0 ng/kg, time 200 min): 6.7 mL/min | Urine Output (1.0 ng/kg, time 200 min): 4.3 mL/min | Urine Osmolality, Mean (1.0 ng/kg, time 220 min): 121.4 mOsm/kg | Urine Output, Mean (1.0 ng/kg, time 220 min): 7.3 mL/min | Urine Osmolality, Mean (1.0 ng/kg, time 240 min): 181.6' mOsm/kg | Urine Output (1.0 ng/kg, time 240 min): 5.5 mL/min | Urine Osmolality, Mean (1.0 ng/kg, time 260 min): 181.8 mOsm/kg | Urine Output, Mean (1.0 ng/kg, time 260 min): 6.6 mL/min | Urine Output (1.0 ng/kg, time 260 min): 4.7 mL/min | Urine Osmolality, Mean (1.0 ng/kg, time 280 min): 242.5 mOsm/kg | Urine Output, Mean (1.0 ng/kg, time 280 min): 4.7 mL/min | Urine Output (1.0 ng/kg, time 280 min): 0 mL/min | Urine Osmolality, Mean (1.0 ng/kg, time 300 min): 202.0 mOsm/kg | Urine Output (1.0 ng/kg, time 300 min): 11.5 mL/min | Urine Osmolality, Mean (1.0 ng/kg, time 320 min): 164.8 mOsm/kg | Urine Output (1.0 ng/kg, time 320 min): 6.7 mL/min | Urine Osmolality, Mean (1.0 ng/kg, time 340 min): 155.5 mOsm/kg | Urine Output, Mean (1.0 ng/kg, time 340 min): 10.6 mL/min | Urine Osmolality, Mean (1.0 ng/kg, time 360 min): 156.3 mOsm/kg | Urine Output, Mean (1.0 ng/kg, time 360 min): 10.4 mL/min | Urine Osmolality, Mean [1]: 55.8 mOsm/kg | Urine Output, Mean [1]: 16.6 mL/min | Urine Output [1]: 10.2 mL/min and 16.8 mL/min | duration of antidiuretic effect (2.0 ng/kg dose): ~360 min | Mean peak urine osmolality (2.0 ng/kg dose, at 2 hours): 587.2 mOsm/kg | Baseline mean urine osmolality (2.0 ng/kg dose, baseline): 55.6 mOsm/kg | Baseline mean urine output (2.0 ng/kg dose, baseline): 16.9 mL/min | Mean nadir urine output (2.0 ng/kg dose, end of 2 hour infusion): 0.7 mL/min | Urine Osmolality, Mean [2]: 56.0 mOsm/kg | Urine Output, Mean [2]: 16.5 mL/min | Urine Osmolality, Mean (2.0 ng/kg, time 20 min): 75.6 mOsm/kg | Urine Output, Mean (2.0 ng/kg, time 20 min): 10.5 mL/min | Urine Osmolality, Mean (2.0 ng/kg, time 40 min): 301.4 mOsm/kg | Urine Output, Mean (2.0 ng/kg, time 40 min): 2.3 mL/min | Urine Osmolality, Mean (2.0 ng/kg, time 60 min): 410.0 mOsm/kg | Urine Output, Mean (2.0 ng/kg, time 60 min): 1.3 mL/min | Urine Osmolality, Mean (2.0 ng/kg, time 80 min): 516.0 mOsm/kg | Urine Output, Mean (2.0 ng/kg, time 80 min): 0.7 mL/min | Urine Osmolality, Mean (2.0 ng/kg, time 100 min): 525.6 mOsm/kg | Urine Output, Mean (2.0 ng/kg, time 100 min): 0.7 mL/min | Urine Osmolality, Mean (2.0 ng/kg, time 120 min): 587.2 mOsm/kg | Urine Output, Mean (2.0 ng/kg, time 120 min): 0.7 mL/min | Urine Osmolality, Mean (2.0 ng/kg, time 140 min): 576.7 mOsm/kg | Urine Output, Mean (2.0 ng/kg, time 140 min): 1.0 mL/min | Urine Osmolality, Mean (2.0 ng/kg, time 160 min): 534.7 mOsm/kg | Urine Output, Mean (2.0 ng/kg, time 160 min): 1.2 mL/min | Urine Osmolality, Mean (2.0 ng/kg, time 180 min): 534.3 mOsm/kg | Urine Output, Mean (2.0 ng/kg, time 180 min): 1.2 mL/min | Urine Osmolality, Mean (2.0 ng/kg, time 200 min): 494.5 mOsm/kg | Urine Output, Mean (2.0 ng/kg, time 200 min): 1.1 mL/min | Urine Osmolality, Mean (2.0 ng/kg, time 220 min): 438.7 mOsm/kg | Urine Output, Mean (2.0 ng/kg, time 220 min): 1.3 mL/min | Urine Osmolality, Mean (2.0 ng/kg, time 240 min): 455.1 mOsm/kg | Urine Output, Mean (2.0 ng/kg, time 240 min): 2.2 mL/min | Urine Osmolality, Mean (2.0 ng/kg, time 260 min): 355.3 mOsm/kg | Urine Output, Mean (2.0 ng/kg, time 260 min): 2.4 mL/min | Urine Osmolality, Mean (2.0 ng/kg, time 280 min): 343.2 mOsm/kg | Urine Output, Mean (2.0 ng/kg, time 280 min): 2.5 mL/min | Urine Osmolality, Mean (2.0 ng/kg, time 300 min): 324.4 mOsm/kg | Urine Output, Mean (2.0 ng/kg, time 300 min): 3.2 mL/min | Urine Osmolality, Mean (2.0 ng/kg, time 320 min): 220.9 mOsm/kg | Urine Output, Mean (2.0 ng/kg, time 320 min): 6.6 mL/min | Urine Osmolality, Mean (2.0 ng/kg, time 340 min): 173.0 mOsm/kg | Urine Osmolality, Mean (2.0 ng/kg, time 360 min): 143.8 mOsm/kg | Urine Output, Mean (2.0 ng/kg, time 360 min): 9.3 mL/min | Urine Osmolality, Mean [3]: 55.6 mOsm/kg | Urine Output, Mean [3]: 16.9 mL/min | antidiuretic effect (low doses as i.v. infusions over 2 hours, dose response fashion): significant antidiuretic effects
